Type in all cases: cell-based
Assay [1] addresses T1, HSF1 occupancy of the hspa1a promoter (Homo sapiens, UniProt Q00613).
T1 construct: functionally linked to an hsp70b promoter and therefore controlled by endogenous HSF1; endogenous in cells; host or cells: HeLa cells / HeLa-derived cell line Z74
The assay can be described thus: Chromatin immunoprecipitation, HSF1 occupancy of hspa1a promoter in HeLa cells. As to conditions: 12.5 μM for two hours, then heat-treated. How it is done:
FIG. 3. (A) HeLa cell cultures were mock-treated (−) or exposed for 2 hours to the indicated concentrations of compounds 058 or 115 and then heat-treated (HS) at 43° C. for 30 min. Top panels: HSF1 DNA-binding activities in cell extracts were determined by EMSA. The panels show the major HSF1-HSE DNA probe complexes. Middle panels: HSF1 levels assayed by western blot (WB). GAPDH served as a loading control. Bottom panels: HSF1 homooligomerization. Aliquots of extracts were EGS-treated and then analyzed by anti-HSF1 WB. The positions of pre-stained molecular weight marker proteins (MW, in thousands) are indicated to the right. Asterisks indicate the positions of monomeric and trimeric HSF1, respectively. (B) Relative occupancy of the hspa1a promoter was assessed by chromatin immunoprecipitation assay of HeLa cell cultures mock-treated (−) or treated with compounds 058 or 115 at 12.5 μM concentrations for 2 hours and then heat-treated (HS) at 43° C. for 30 min. Chromatin fragments were immunoprecipitated using HSF1 antibodies or an F4/80 LR (control) antibody, and associated hspa1a promoter DNA was quantified by real-time PCR.
We also investigated whether the compounds were capable of interfering with HSF1 oligomerization. Aliquots of the extracts were subjected to cross-linking with EGS (ethylene glycolbis(succinimidylsuccinate)) and then re-analyzed by anti-HSF1 WB. […]

A further assay concerns NCI-H1975. Put plainly: Alamar Blue viability assay. As to conditions: Homo sapiens, Lung, P53 Wt, 96-hour exposure. As to the method:
(§1) Cultures of HeLa cells were exposed for 96 hours to different concentrations of IHSF 001, 058 and 115, and viability was assessed using an Alamar Blue assay. It is noted that this standard assay examines attached cells only. This subject will be discussed in more detail below. […] The relative cytotoxicity of the compounds appears to parallel their respective activities as inhibitors of HSF1 function (inhibition of RLuc expression in Z74 cells). We next examined the viability of different human cancer cell lines subsequent to a 96-hour exposure to compound 115 (Table 3). HSF1 was reported as being required for optimal p21 expression and for p53-mediated cell cycle arrest in response to genotoxins. Logan, I. R. et al. (2009) Nucleic Acids Res. 37: 2962-2971. […] Cell lines of different p53 status were included in the experiments in order to find out whether sensitivity to IHSF 115 was related to p53 status. […] No effect of p53 status could be discovered. It is noted that a number of additional HSF inhibitors of the present disclosure were tested and found to effectively reduce the viability of human cancer cells.
For orientation: The colour change of resazurin is a common sign of viable cells or microbes.

A further assay relates to NCI-H2228. Put plainly: Alamar Blue viability assay. As to conditions: Homo sapiens, Lung, P53 Wt, 96-hour exposure. How it is done:
as §1

The next assay deals with RPMI 8266. The assay can be described thus: Alamar Blue viability assay. As to conditions: Homo sapiens, RPMI8266, Multiple myeloma, P53 Mut, 96-hour exposure. How it is done:
as §1

For a further assay, the system named is OV56. Put plainly: Alamar Blue viability assay. As to conditions: Homo sapiens, Ovarian carcinoma, P53 Mut, 96-hour exposure. As to the method:
as §1

The next assay concerns MDA-MB-453. The assay can be described thus: Alamar Blue viability assay. As to conditions: Homo sapiens, Breast, P53 Mut, 96-hour exposure. As to the method: as §1
Another assay has as its system SK-N-SH. Put plainly: Alamar Blue viability assay. As to conditions: Homo sapiens, Neuroblastoma, P53 Wt, 96-hour exposure. How it is done:
as §1

The subject of another assay is PC-3. The assay can be described thus: Alamar Blue viability assay. As to conditions: Homo sapiens, Prostate, P53 Null, 96-hour exposure. How it is done:
as §1

Another assay concerns BT-474. The assay can be described thus: Alamar Blue viability assay. As to conditions: Homo sapiens, Breast, P53 Mut, 96-hour exposure. How it is done: as §1
The next assay deals with T47D. The assay can be described thus: Alamar Blue viability assay. As to conditions: Homo sapiens, Breast, P53 Mut, 96-hour exposure. How it is done: as §1

We go through one molecule from US11597708B2, “Inhibitors of heat shock factors and uses thereof” (HSF Pharmaceuticals SA, priority 2016, dated 2023).

T1 sequence (Q00613 whole entry): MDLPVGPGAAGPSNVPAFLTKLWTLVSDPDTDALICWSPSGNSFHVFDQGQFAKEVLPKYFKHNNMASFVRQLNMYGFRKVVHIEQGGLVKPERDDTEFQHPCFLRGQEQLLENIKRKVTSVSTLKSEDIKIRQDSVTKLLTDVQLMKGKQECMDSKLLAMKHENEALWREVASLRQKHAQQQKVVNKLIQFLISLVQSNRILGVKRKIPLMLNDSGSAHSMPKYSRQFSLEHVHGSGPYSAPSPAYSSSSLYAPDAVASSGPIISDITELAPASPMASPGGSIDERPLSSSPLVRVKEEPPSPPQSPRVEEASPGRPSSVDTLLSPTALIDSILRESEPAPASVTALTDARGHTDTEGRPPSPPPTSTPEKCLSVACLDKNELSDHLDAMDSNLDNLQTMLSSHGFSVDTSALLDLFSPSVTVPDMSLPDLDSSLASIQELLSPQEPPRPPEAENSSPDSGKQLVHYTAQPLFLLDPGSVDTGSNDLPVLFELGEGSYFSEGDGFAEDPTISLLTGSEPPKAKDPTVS

The term EC50 denotes the midpoint of the concentration-response curve. A higher EC50 goes with a need for much substance. With `CN(C(=O)/C=C/C1=NCCCO1)c1ncc(-c2cccnc2)s1` [IHSF 115, (E)-3-(5,6-Dihydro-4H-[1,3]oxazin-2-yl)-N-methyl-N-(5-pyridin-3-yl-thiazol-2-yl)-acrylamide], in assay [1], the “HSF1 occupancy of the hspa1a promoter (ChIP)” value is “not reduced substantially”. Besides, the EC50 in the assay on NCI-H1975 came to 5.1 µM; in the assay on NCI-H2228, 12.8 µM; in the assay on RPMI 8266 it was 3.6 µM; with OV56, 6.8 µM; in the assay with MDA-MB-453, 4.2 µM; in the assay with SK-N-SH, 4 µM. For the same molecule, the concentration giving a half-maximal response (EC50) in the assay on PC-3 stood at 4 µM; in the assay on BT-474 it was 5.2 µM; with T47D, 4.4 µM.
